Columns and labels:
Bicalutamide = compound: CC(O)(CS(=O)(=O)c1ccc(F)cc1)C(=O)Nc1ccc(C#N)c(C(F)(F)F)c1 [Bicalutamide]; experiment: relative viability (nuclei count vs DMSO), 5 days (fraction); higher = more cells survive
Outline: (§1)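 Lung cancer cell lines in 1536-well plates were kept overnight at 37 °C, then pinned with five library-drug doses (not always all listed) spaced by √10 on vehicle-anchored plates. After 5 days without medium change, cells were fixed, permeabilised and Hoechst-stained in one step, imaged at 4×, and nuclei were counted with MetaXpress. Viability is treated-well nuclei divided by vehicle-well nuclei, taken as the median over plates. Plates passed only with control CV below 25% and at least one doubling.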

Bromopyruvate = compound: C(C(=O)C(=O)O)Br [Bromopyruvate]; experiment: as above
Outline: as §1

## RERF-LC-KJ
Bicalutamide; 0.08 µM
  relative viability: 1.01
Bicalutamide; 0.253 µM
  relative viability: 0.985
Bicalutamide; 0.8 µM
  relative viability: 1.15
Bicalutamide; 2.53 µM
  relative viability: 0.982
Bromopyruvate; 1 µM
  relative viability: 1.04
Bromopyruvate; 3.162 µM
  relative viability: 1.02
Bromopyruvate; 10 µM
  relative viability: 1.13
Bromopyruvate; 31.62 µM
  relative viability: 1.02
Bromopyruvate; 100 µM
  relative viability: 0.98

## SK-LU-1
Bicalutamide; 0.08 µM
  relative viability: 1.11
Bicalutamide; 0.253 µM
  relative viability: 1.02
Bicalutamide; 0.8 µM
  relative viability: 1.23
Bicalutamide; 2.53 µM
  relative viability: 1.02
Bromopyruvate; 1 µM
  relative viability: 1.07
Bromopyruvate; 3.162 µM
  relative viability: 0.93
Bromopyruvate; 10 µM
  relative viability: 1.2
Bromopyruvate; 31.62 µM
  relative viability: 0.935
Bromopyruvate; 100 µM
  relative viability: 0.943

## SK-MES-1
Bicalutamide; 0.08 µM
  relative viability: 1.02
Bicalutamide; 0.253 µM
  relative viability: 0.961
Bicalutamide; 0.8 µM
  relative viability: 1.09
Bicalutamide; 2.53 µM
  relative viability: 0.971
Bromopyruvate; 1 µM
  relative viability: 0.99
Bromopyruvate; 3.162 µM
  relative viability: 1.07
Bromopyruvate; 10 µM
  relative viability: 1.12
Bromopyruvate; 31.62 µM
  relative viability: 0.958
Bromopyruvate; 100 µM
  relative viability: 1.05

## SW 900
Bicalutamide; 0.08 µM
  relative viability: 0.847
Bicalutamide; 0.253 µM
  relative viability: 0.858
Bicalutamide; 0.8 µM
  relative viability: 0.9
Bicalutamide; 2.53 µM
  relative viability: 0.742
Bromopyruvate; 1 µM
  relative viability: 0.923
Bromopyruvate; 3.162 µM
  relative viability: 0.774
Bromopyruvate; 10 µM
  relative viability: 0.754
Bromopyruvate; 31.62 µM
  relative viability: 0.881
Bromopyruvate; 100 µM
  relative viability: 0.883

## SW 1573
Bicalutamide; 0.08 µM
  relative viability: 1.02
Bicalutamide; 0.253 µM
  relative viability: 0.757
Bicalutamide; 0.8 µM
  relative viability: 1.15
Bicalutamide; 2.53 µM
  relative viability: 0.969
Bromopyruvate; 1 µM
  relative viability: 1.03
Bromopyruvate; 3.162 µM
  relative viability: 0.995
Bromopyruvate; 10 µM
  relative viability: 1.13
Bromopyruvate; 31.62 µM
  relative viability: 0.925
Bromopyruvate; 100 µM
  relative viability: 0.385
